Experimental data as given in patent publication US11208412B2 (DAEGU-GYEONGBUK MEDICAL INNOVATION FOUNDATION, priority 2017, dated 2021).

Tests used:
Test in all cases: Kinase selectivity, DiscoverX scanMAX Kinase assay panel (% control)
Format in all cases: binding
[1] = molecular target: T1, kinases of the scanMAX Kinase assay panel (Homo sapiens, UniProt O94806); details: PRKD3; 1 uM
T1 construct: purchased DiscoverX Co. (contract measurement) scanMAX Kinase assay panel
T1 sequence (O94806 1-890): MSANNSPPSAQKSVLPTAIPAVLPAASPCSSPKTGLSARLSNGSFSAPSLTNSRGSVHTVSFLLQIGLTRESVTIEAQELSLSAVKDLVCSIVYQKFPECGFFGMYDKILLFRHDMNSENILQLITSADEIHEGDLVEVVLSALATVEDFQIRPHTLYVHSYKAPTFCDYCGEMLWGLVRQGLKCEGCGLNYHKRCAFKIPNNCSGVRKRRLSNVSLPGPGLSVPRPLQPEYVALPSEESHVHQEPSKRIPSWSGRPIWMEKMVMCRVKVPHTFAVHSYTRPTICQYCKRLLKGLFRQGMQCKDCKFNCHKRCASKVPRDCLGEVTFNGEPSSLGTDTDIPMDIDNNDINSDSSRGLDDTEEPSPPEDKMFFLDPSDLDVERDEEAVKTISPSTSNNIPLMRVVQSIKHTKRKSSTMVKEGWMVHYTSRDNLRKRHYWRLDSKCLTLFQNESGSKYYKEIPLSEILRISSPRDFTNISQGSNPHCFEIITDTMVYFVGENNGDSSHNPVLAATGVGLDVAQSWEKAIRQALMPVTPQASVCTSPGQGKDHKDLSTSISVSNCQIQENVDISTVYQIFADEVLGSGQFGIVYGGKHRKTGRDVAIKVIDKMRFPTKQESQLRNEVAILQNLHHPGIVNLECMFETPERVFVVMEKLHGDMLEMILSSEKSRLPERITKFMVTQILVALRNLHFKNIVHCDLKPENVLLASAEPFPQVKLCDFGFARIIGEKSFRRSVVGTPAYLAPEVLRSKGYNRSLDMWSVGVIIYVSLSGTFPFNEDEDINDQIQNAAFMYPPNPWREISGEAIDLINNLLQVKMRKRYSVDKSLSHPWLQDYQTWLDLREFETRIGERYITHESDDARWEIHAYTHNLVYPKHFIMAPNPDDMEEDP
Outline: (§1)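 Compounds were tested at 1 uM (in DMSO) against each panel kinase. % control was calculated as (compound − positive control)/(negative control − positive control)×100, where the positive control gives 0% and DMSO gives 100%. Activity toward a kinase was called at % control <35%.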

[2] = molecular target: T2, kinases of the scanMAX Kinase assay panel (Homo sapiens, UniProt Q13464); details: kinase ROCK1; 1 uM in DMSO
T2 construct: purchased DiscoverX Co. (contract measurement) scanMAX Kinase assay panel
Outline: as §1

[3] = molecular target: T3, kinases of the scanMAX Kinase assay panel (Homo sapiens, UniProt P08581); details: MET; 1 uM
T3 construct: purchased DiscoverX Co. (contract measurement) scanMAX Kinase assay panel
Outline: as §1

[4] = molecular target: T4, kinases of the scanMAX Kinase assay panel (Homo sapiens, UniProt O43283); details: LZK; 1 uM
T4 construct: purchased DiscoverX Co. (contract measurement) scanMAX Kinase assay panel
T4 sequence (O43283 1-966): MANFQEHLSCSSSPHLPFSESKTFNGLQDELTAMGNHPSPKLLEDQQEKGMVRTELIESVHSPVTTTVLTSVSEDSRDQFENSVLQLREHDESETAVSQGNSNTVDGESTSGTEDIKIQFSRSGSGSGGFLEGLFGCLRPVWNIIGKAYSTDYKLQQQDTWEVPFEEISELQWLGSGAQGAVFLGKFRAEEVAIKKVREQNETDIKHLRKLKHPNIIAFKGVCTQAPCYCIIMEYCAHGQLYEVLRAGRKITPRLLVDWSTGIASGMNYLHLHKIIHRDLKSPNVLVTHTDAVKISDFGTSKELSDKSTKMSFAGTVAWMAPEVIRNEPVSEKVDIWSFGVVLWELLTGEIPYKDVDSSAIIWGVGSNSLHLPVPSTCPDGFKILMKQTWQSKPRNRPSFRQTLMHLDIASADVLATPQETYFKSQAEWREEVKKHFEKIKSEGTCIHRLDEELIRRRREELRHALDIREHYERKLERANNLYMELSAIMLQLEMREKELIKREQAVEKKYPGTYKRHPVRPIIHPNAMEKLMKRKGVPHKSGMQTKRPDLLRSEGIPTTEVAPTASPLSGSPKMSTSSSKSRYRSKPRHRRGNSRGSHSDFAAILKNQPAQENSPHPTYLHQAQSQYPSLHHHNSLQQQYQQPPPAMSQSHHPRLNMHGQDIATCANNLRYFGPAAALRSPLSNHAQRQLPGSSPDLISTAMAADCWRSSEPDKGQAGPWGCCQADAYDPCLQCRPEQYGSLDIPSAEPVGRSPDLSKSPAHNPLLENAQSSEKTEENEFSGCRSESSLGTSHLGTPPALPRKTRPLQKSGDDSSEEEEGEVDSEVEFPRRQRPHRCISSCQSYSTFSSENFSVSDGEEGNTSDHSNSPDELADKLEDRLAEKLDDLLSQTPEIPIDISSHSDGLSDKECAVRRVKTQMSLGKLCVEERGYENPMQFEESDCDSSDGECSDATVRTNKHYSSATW
Outline: as §1

T3 sequence (P08581 25-1390): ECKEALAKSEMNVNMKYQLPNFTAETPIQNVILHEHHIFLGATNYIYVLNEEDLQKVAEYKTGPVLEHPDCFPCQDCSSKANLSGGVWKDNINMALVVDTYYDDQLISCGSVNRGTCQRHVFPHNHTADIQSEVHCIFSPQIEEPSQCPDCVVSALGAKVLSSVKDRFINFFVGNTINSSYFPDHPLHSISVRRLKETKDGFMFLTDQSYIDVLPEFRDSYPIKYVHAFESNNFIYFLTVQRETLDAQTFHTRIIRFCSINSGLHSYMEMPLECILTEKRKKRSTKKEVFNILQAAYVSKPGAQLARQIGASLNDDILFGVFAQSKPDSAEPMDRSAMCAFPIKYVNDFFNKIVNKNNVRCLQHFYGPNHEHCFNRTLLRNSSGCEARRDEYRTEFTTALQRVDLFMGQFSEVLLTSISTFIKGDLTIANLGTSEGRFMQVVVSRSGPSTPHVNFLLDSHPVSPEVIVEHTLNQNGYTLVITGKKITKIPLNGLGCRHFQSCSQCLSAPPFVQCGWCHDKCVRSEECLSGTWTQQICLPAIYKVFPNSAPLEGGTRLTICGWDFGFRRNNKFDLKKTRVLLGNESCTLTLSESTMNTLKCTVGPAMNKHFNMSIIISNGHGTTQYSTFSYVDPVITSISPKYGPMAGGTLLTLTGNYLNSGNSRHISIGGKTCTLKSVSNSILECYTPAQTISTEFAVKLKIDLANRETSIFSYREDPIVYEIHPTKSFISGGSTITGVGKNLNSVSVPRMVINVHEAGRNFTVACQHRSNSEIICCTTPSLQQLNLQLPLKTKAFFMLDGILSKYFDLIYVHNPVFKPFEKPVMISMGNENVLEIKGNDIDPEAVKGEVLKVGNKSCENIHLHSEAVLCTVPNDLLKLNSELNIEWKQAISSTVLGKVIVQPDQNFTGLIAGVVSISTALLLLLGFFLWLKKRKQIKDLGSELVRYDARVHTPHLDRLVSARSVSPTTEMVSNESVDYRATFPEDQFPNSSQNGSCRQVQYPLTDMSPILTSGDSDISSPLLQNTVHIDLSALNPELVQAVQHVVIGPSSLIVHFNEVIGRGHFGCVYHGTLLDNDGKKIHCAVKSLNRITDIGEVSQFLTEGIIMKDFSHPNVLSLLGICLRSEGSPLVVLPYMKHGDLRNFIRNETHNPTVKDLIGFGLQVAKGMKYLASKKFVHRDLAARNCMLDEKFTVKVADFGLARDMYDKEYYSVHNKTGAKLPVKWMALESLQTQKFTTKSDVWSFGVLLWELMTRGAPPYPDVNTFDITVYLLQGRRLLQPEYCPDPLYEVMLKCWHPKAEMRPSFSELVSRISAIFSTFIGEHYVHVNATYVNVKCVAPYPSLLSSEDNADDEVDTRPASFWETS
T2 sequence (Q13464 whole entry): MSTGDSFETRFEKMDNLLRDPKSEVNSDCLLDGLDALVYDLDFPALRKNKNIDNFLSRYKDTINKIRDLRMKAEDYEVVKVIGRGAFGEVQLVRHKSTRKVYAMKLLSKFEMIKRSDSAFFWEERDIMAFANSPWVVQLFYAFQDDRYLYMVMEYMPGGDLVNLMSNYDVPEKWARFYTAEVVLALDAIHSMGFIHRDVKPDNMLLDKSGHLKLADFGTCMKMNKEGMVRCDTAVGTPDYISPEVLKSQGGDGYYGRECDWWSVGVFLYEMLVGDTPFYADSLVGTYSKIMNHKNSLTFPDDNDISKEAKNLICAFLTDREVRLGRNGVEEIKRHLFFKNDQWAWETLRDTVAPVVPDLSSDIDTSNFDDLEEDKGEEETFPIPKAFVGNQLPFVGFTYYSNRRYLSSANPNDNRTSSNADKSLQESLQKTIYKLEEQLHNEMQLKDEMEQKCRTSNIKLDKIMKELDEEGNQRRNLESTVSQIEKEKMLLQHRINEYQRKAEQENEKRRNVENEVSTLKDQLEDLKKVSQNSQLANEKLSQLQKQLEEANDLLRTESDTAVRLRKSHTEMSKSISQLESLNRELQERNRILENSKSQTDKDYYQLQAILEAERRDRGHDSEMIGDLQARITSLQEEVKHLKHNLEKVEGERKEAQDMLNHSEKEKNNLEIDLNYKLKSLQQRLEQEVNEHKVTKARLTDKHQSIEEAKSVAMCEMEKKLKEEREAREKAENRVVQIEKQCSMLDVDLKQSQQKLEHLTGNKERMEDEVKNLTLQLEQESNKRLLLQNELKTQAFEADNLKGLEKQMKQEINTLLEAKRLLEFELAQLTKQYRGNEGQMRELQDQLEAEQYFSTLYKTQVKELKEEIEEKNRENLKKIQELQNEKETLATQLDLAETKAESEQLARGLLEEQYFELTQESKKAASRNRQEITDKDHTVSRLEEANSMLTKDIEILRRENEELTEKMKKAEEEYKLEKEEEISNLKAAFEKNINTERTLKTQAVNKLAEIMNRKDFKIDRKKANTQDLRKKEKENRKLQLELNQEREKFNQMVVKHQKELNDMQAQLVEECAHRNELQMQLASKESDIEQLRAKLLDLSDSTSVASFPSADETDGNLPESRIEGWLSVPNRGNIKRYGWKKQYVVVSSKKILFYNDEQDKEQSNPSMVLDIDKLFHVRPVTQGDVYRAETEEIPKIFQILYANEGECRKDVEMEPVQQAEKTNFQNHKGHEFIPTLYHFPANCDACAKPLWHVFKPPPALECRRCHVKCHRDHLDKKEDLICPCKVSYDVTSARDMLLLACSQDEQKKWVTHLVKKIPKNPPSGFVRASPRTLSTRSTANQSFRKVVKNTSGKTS

SMILES	remaining binding at 1 µM [1] [%]	remaining binding at 1 µM [2] [%]	remaining binding at 1 µM [3] [%]	remaining binding at 1 µM [4] [%]
CNc1nc(Nc2ccc(C(=O)N3CCOCC3)cc2OC)nc2[nH]cc(C#N)c12 [Example 1, 2-((2-methoxy-4-(morpholine-4-carbonyl)phenyl)amino)-4-(methylamino)-7H-pyrrolo[2,3-d]pyrimidine-5-carbonitrile]	39	64	89	81
CC1(Nc2nc(Nc3cnn([C@H]4CCN(C5COC5)C[C@@H]4F)c3Cl)nc3[nH]cc(C#N)c23)CC1 [Example 52, 2-((5-chloro-1-((3S,4S)-3-fluoro-1-(oxetane-3-yl)piperidine-4-yl)-1H-pyrazole-4-yl)amino)((1-methylcyclopropyl)amino)-7H-pyrrolo[2,3-d]pyrimidine-5-carbonitrile]	0.7	28	21	16
CCNc1nc(Nc2ccc(C(=O)N3CCC(N4CCOCC4)CC3)cc2OC)nc2[nH]cc(C(F)(F)F)c12 [Example 104, (4-((4-(ethylamino)-5-(trifluoromethyl)-7H-pyrrolo[2,3-d]pyrimidine-2-yl)amino)-3-methoxyphenyl)(4-morpholinopiperidine-1-yl)methanone]	17	100	100	100
